Experiments:
CA1 hippocampal neurons = assay: 2-photon FRET cAMP imaging in acute brain slices; assay type: cell-based, mice; conditions: bath application 100 nM, CaMKIIα-Cre:CAMPER+/− slices
D2R [1] = target: D2R (Homo sapiens, UniProt P14416); assay type: cell-based; conditions: D2R vs D3R
D2R [2] = conditions: cited from earlier work

Chain of D2R (Homo sapiens, UniProt P14416) (P14416 whole entry): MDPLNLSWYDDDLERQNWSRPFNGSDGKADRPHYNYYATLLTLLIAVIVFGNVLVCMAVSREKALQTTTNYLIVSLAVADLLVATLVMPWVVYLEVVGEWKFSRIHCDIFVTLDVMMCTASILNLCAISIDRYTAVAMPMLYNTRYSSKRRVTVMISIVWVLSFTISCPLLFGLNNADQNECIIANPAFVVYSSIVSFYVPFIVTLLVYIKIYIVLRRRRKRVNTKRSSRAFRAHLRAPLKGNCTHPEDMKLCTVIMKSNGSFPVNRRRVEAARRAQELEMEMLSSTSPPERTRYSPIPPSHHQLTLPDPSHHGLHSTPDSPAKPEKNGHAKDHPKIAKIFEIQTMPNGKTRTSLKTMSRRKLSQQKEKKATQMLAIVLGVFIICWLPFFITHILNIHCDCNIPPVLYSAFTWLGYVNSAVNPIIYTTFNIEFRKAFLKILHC

Row | SMILES | agonist-induced cAMP response (CA1 hippocampal neurons) | activation of GoA via D2R compared to D3R (D2R [1]) | affinity for D2R over D3R (D2R [2])
1 | COc1ccc(OCCN2CCN(C(=O)c3cc4ccccc4[nH]3)CC2)cc1 [ML417] | increase in cAMP production | – | –
2 | CN[C@@H]1Cc2cccc3[nH]c(=O)n(c23)C1 [sumanirole] | robust inhibition of cAMP | five | 200 fold
